Experimental data as given in US10377743B2, “Inhibitors of RAS and methods of use thereof” (Araxes Pharma LLC, priority 2016, dated 2019).

Biological target: T1, KRAS G12C 1-169, his-tagged protein, GDP-loaded (Homo sapiens, UniProt P01116, G12C)
T1 construct: KRAS G12C 1-169, his-tagged protein, GDP-loaded
Assay: Biochemical assay: covalent binding (modification %) to KRAS G12C by mass spectrometry
Settings: 2 hour incubation period, 8 μM compound (compounds 21-92)

SMILES	Binding %
C=CC(=O)N1CC(N2Cc3ccc(-c4ccc(C#N)cc4)cc3C2=O)C1 [Compound 80, 4-(2-(1-acryloylazetidin-3-yl)-3-oxoisoindolin-5-yl)benzonitrile]	+ (+ indicates binding activity up to 10%)
C=CC(=O)N1CC(N2Cc3ccc(-c4ccc(C(N)=O)cc4)cc3C2=O)C1 [Compound 81, 4-(2-(1-acryloylazetidin-3-yl)-3-oxoisoindolin-5-yl)benzamide]	+ (+ indicates binding activity up to 10%)
C=CC(=O)N1CC(N2Cc3ccc(-c4cc(O)cc5ccccc45)nc3C2=O)C1 [Compound 82, 6-(1-acryloylazetidin-3-yl)-2-(3-hydroxynaphthalen-1-yl)-5,6-dihydro-7H-pyrrolo[3,4-b]pyridin-7-one]	+ (+ indicates binding activity up to 10%)
C=CC(=O)N1CC(N2Cc3c(C(N)=O)cc(-c4c(O)cccc4F)cc3C2=O)C1 [Compound 83, 2-(1-acryloylazetidin-3-yl)-6-(2-fluoro-6-hydroxyphenyl)-1-oxoisoindoline-4-carboxamide]	+ (+ indicates binding activity up to 10%)
C=CC(=O)N1CC(N2Cc3ccc(C(=O)Nc4cn[nH]c4)cc3C2=O)C1 [Compound 84, 2-(1-acryloylazetidin-3-yl)-3-oxo-N-(1H-pyrazol-4-yl)isoindoline-5-carboxamide]	+ (+ indicates binding activity up to 10%)
C=CC(=O)N1CCC(N2Cc3c(C(N)=O)cc(-c4c(C)ccc5[nH]ncc45)cc3C2=O)C1 (stereo not shown) [Compound 85, 2-(1-acryloylpyrrolidin-3-yl)-6-(5-methyl-1H-indazol-4-yl)-1-oxoisoindoline-4-carboxamide]	+ (+ indicates binding activity up to 10%)
C=CC(=O)N1CC(N2Cc3ccc(NC(=O)c4cn[nH]c4)cc3C2=O)C1 [Compound 86, N-(2-(1-acryloylazetidin-3-yl)-3-oxoisoindolin-5-yl)-1H-pyrazole-4-carboxamide]	+ (+ indicates binding activity up to 10%)
C=CC(=O)N1CC(N2Cc3ccc(-c4c(C)ccc5[nH]ncc45)nc3C2=O)C1 [Compound 87, 6-(1-acryloylazetidin-3-yl)-2-(5-methyl-1H-indazol-4-yl)-5,6-dihydro-7H-pyrrolo[3,4-b]pyridin-7-one]	+ (+ indicates binding activity up to 10%)
C=CC(=O)N1CC(N2Cc3ccc(-c4nc(N)ncc4C)cc3C2=O)C1 [Compound 88, 2-(1-acryloylazetidin-3-yl)-6-(2-amino-5-methylpyrimidin-4-yl)isoindolin-1-one]	+ (+ indicates binding activity up to 10%)
C=CC(=O)N1CC(N2Cc3c(C#N)cc(-c4c(C)ccc5[nH]ncc45)cc3C2=O)C1 [Compound 89, 2-(1-acryloylazetidin-3-yl)-6-(5-methyl-1H-indazol-4-yl)-1-oxoisoindoline-4-carbonitrile]	+ (+ indicates binding activity up to 10%)
C=CC(=O)N1CC(N2Cc3ccc(-c4ccc(O)nc4)cc3C2=O)C1 [Compound 90, 2-(1-acryloylazetidin-3-yl)-6-(6-hydroxypyridin-3-yl)isoindolin-1-one]	+ (+ indicates binding activity up to 10%)
C=CC(=O)N1CCC(N2Cc3c(C(N)=O)cc(-c4c(O)cccc4F)cc3C2=O)C1 (stereo not shown) [Compound 91, 2-(1-acryloylpyrrolidin-3-yl)-6-(2-fluoro-6-hydroxyphenyl)-1-oxoisoindoline-4-carboxamide]	+ (+ indicates binding activity up to 10%)
C=CC(=O)N1CC(N2Cc3c(OC)cc(-c4c(C)ccc5[nH]ncc45)cc3C2=O)C1 [Compound 92, 2-(1-acryloylazetidin-3-yl)-4-methoxy-6-(5-methyl-1H-indazol-4-yl)isoindolin-1-one]	++ (++ indicates binding activity from 10 to 50%)
